Target: MAb 4197-70-12
Test: two-step competitive ELISA; inhibition of MAb binding to carrier-bound antigen (cross-reactivity)
Set-up: species or system mouse (Balb/c)
Conditions: for I50 (inhibitor concentration that reduces the ELISA signal by 50% in comparison with the control): competitive ELISA; for cross-reactivity: (antigen conc. for 50% inhibition/concentration of the antigen analog for 50% inhibition) × 100: relative to compound of formula (II) = 100
Experimental: [antigen concentration for 50% inhibition (I50)/concentration of the
antigen analogs for 50% inhibition (I50)]×100.
The I50 value can be determined, for example, by means of a competitive ELISA assay (see Example 8).
The detection of a compound of formula (II) can be effected by means of a two-step competitive ELISA test.
BSA-conjugated hapten, prepared in accordance with Example 1.2.1, in a 50 mM sodium carbonate buffer (pH 9.6) (200 ng of BSA-conjugated hapten/100 μl of 50 mM sodium carbonate buffer) is first of all adsorbed on microtitre plates (for example Dynatech, type M 129A) and incubated overnight at a temperature of 4° C.
The plates are then washed five times with PBS buffer enriched with 0.1% (v/v) polysorbate 20 (Tween 20) (PBS Tween).
The remaining free binding sites of the solid carrier material are then blocked by the addition of PBS-BSA in the form of a 1% (w/v) solution. After incubation for two hours at 22° C. the plates are washed again with PBS Tween (0.1%).
50 μl of the supernatant of the previously cloned hybridoma cells (in a dilution of from 1:1000 to 1:2000) or 50 μl of the previously purified monoclonal antibodies (40-120 ng/ml) are incubated a) with 950 μl of a standard solution containing an increasing amount of antigen [compound of formula (II)] or of antigen analog, b) with antigen-containing water samples or c) with antigen-containing soil extracts. [All dilutions are carried out in PBS Tween (0.1%)].
After an incubation period of 1 hour at room temperature (22° C.), 200 μl of the antigen/antibody mixture are added to each well in the microtitre plate and the whole batch is incubated for a further one hour. The wells are then washed five times with PBS Tween (0.1%) and charged with 100 μl/well of goat anti-mouse IgG antibody that is conjugated to alkaline phosphatase (dilution 1:1500), and incubated for a period of 1.5 hours.
After washing again, 150 μl/well of the substrate p-nitrophenyl phosphate dissolved in 1 mg/ml of diethanolamine buffer (1 mM, pH 9.8, enriched with 0.5 mM MgCl2 ×6H2 O) are added to the wells.
The intensity of the colour reaction that has occurred is determined at a wavelength of 405 nm. […] All the samples are determined in triplicate.
In order to determine the amount of antigen [[…]] present in a sample, first of all a calibration curve is produced, B/Bo×100 being plotted against the concentration of inhibitor. (Bo represents the absorption capacity measured without the addition of an antigen inhibitor to the antibody, and B is the absorption capacity when antigen inhibitors at various concentrations are added). The I50 value indicates the concentration of the antigen at which the binding of antibody to the solid phase is inhibited by 50%. The I50 value is determined using an ENZFITTER (Leatherbarrow, Elsevier-Biosoft) curve-calculation program based on a four-parameter logistical curve (Raab GM, 1983) and specially adapted to the prevailing conditions. The quantitative determination of antigen in soil or water samples within the context of ELISA is also carried out using the ENZFITTER program, the adaptation of the curve being based on standards that run on any microtitre plate.
^a) Inhibitor concentration that reduces the ELISA signal by 50% in
comparison with the control.
^b) (antigen conc. for 50% inhibition/concentration of the antigen
analog for 50% inhibition) × 100.

SMILES	I50 (inhibitor concentration that reduces the ELISA signal by 50% in comparison with the control) [ng/mL]	cross-reactivity: (antigen conc. for 50% inhibition/concentration of the antigen analog for 50% inhibition) × 100 [%]	cross-reactivity in words
COc1nc(C)nc(NC(=O)NS(=O)(=O)c2ccccc2CCC(F)(F)F)n1 [Compound of formula (II), N-[2-(3,3,3-trifluoropropyl)-phenylsulfonyl]-N'-(4-methoxy-6-methyl-1,3,5-triazin-2-yl)urea]	0.8	100	
COC(=O)c1ccccc1S(=O)(=O)NC(=O)Nc1nc(OC(F)F)cc(OC(F)F)n1 [D]	> 1000	< 0.1	
COc1nc(C)nc(NC(=O)NS(=O)(=O)c2ccc(O)cc2OCCCl)n1 [A]	> 1000	< 0.1	
COc1nc(C)nc(NC(=O)NS(=O)(=O)c2ccccc2OCCCl)n1 [B]	> 1000	< 0.1	no cross-reactivity

— patent US5756683A, “Immunological detection method” (Novartis Finance Corporation, priority 1991, dated 1998)
